Where a name gives a salt, the structure may show the parent alone. Read-outs that look alike come from different tables or passages of the source.
How the values were obtained:
[1] = Effect on nerve cell survival and toxicity in culture (dissociated neonatal rat cerebellum); type: cell-based; settings: rat, cerebellar nerve cells
Protocol: (§1) A concentration-dependent (dose-response) effect on nerve cell survival was determined for each compound at a concentration range of 0.001-5000 micromolar (μM). The compounds were added to 3-day-old cultures and the effect was examined 24 hours later.
(§2) Nerve cell survival was evaluated by phase contrast microscopy and trypan blue exclusion staining.
(§3) The results, summarized in Table 1, show the compound concentrations at which 20% or more cells survived (Survival) relative to controls, and at which 50% of the cells died (TD50) when compared to controls. Control cultures were grown in enriched medium alone and represent 100% values.

[2] = tested on: nerve cell survival after NMDA neurotoxic challenge; assay: Reversal of N-methyl-D-aspartate induced cell death in culture; settings: for Percent Protection: after NMDA, survival minus NMDA effect
Protocol: The cerebellum is aseptically dissociated from 6 or 7-day old rat pups and placed in a 15 ml sterile plastic conical tube containing 3 ml of Dulbecco's modified Eagle's medium containing high glucose concentration ([…]), 2 Mm (v/v) L-glutamine and an antibiotic mixture. The cerebella are then dissociated after 20-25 passages through a sterile 13 gauge, 10 cm long stainless steel needle attached to a 5 ml syringe with an inserted 45 micrometer pore nylon sieve. The dissociated cells are centrifuged at 200 g for 5 minutes. The supernatant is discarded and the cells resuspended in medium enriched with 15% (v/v) heat inactivated fetal calf serum. Cell viability is determined by the trypan blue exclusion test.
Cells are plated at a density of 200/mm^2 on poly-L-lysine coated surfaces which are prepared at least one hour in advance of plating by covering the surfaces (plastic Petri dishes or glass coverslips) with sterile distilled water solution containing 15 micrograms/ml poly-L-lysine, and washing in sterile water just prior to use. The plated cells are covered with enriched medium and incubated at 37° C. in an atmosphere of 5% CO2 in air and 97% humidity. After three days in culture, the media is replaced with media containing the desired compound. Each compound is tested in duplicate and each experiment repeated at least once.
Four groups were run in each set of experiments:
1. Control, consisting of cells grown in enriched media alone;
2. N-methyl-D-aspartate (NMDA, 1 Mm for 3 hours) as the cytotoxic challenge;
3. Test compound added after the NMDA challenge;
4. Positive control, spermine or spermidine (0.01 μM) after NMDA.
The number of surviving cells was examined 24 hours after the challenge. Surviving cells in culture are measured relative to control (100%) as described above. Percent Protection is the cell survival for the test compound minus the NMDA effect. […] The Effective Protection value was calculated as the percent of the Percent Protection (X) divide by the maximal protection value (e.g. X×100/70).

[3] = tested on: pyramidal neurons of the CA1 layer of the anterior hippocampus; assay: animal or person; type: in vivo
Protocol: Male mongolian gerbils, aged 2.5-5 months, housed 4-8 in a cage, are supplied freely with food and water and maintained at 24° C. with a 12 hour day/night cycle. For surgery, the animals are anesthetized with halothane (1.5% in 100% O2) and the common carotid arteries exposed bilaterally through a midline ventral neck incision. Each artery is clamped for 5 minutes with aneurysm clips to produce global brain ischemia. The anesthesia is discontinued upon clamping. After 5 minutes the clamps are removed and the wound closed with skin clips
For treatment, the test compound or saline (0.9% NaCl, vehicle) are injected intraperitoneally (ip) in a volume of 50 microliters of solvent per 10 g body weight. The first injection is given 5 minutes after clamp removal, and thereafter daily for the next 2 post-operative days (total of 3 injections).
Four general groups, each of 4-8 animals were compare:
1. Control (sham, or unoperated and vehicle treated);
2. Ischemia, untreated or vehicle treated;
3. Ischemia, test compound treated, one sub-group per concentration tested;
4. Ischemia and pentobarbital (40 mg/kg) as positive control.
Analysis of neuronal damage was performed 14 days post-ischemia by counting pyramidal neurons throughout the CA1 layer of the anterior hippocampus in 4 micrometer thick (paraffin) coronal brain sections, stained with hematoxylin eosin. Values of cell numbers in the hippocampi of individual gerbils were expressed as percent of intact controls (control cell counts were 275±25 cells/mm^2).
Percent Protection values represent the fraction of hippocampi protected from ischemia in a group of animals treated with the stated dose of compound.

cell proliferation = assay: Toxicity and cell proliferation, general statement; type: cell-based
nicotine receptors = settings: background; cited from earlier work
NMDA receptors = settings: background; cited from earlier work
[4] = tested on: intracellular imidazoline receptors; settings: background; cited from earlier work
[5] = tested on: ADP-ribosylation of proteins; settings: acts as ADP-ribose acceptor; background; cited from earlier work
[6] = animals; background; cited from earlier work
nerve cell survival = assay: Effect on nerve cell survival and toxicity in culture (dissociated neonatal rat cerebellum); type: cell-based; settings: 24 hours
Protocol: as §1, §2, §3

[7] = tested on: ischemia-induced nerve cell death; settings: gerbils; Gilad et al. 1989, 1991, 1992; cited from earlier work
[8] = TD50 (concentration at which 50% of the cells died)
[9] = Rattus norvegicus, 24 h, read-out: Effective Protection
[10] = Rattus norvegicus, 24 h, read-out: Surviving Cells in Culture
[11] = Meriones unguiculatus, Pyramidal neuron, ip, 336 h, read-out: Percent Protection
[12] = 24 hours, 3-day-old cultures, read-out: TD50 (concentration at which 50% of the cells died)

Row | Structure (SMILES) | CC50 at 24 h [1, 8] | Percent Protection ([2]; 10 μM) | Percent Protection ([2]; 50 μM) | inhibition at 10 µM [2, 9] | inhibition at 50 µM [2, 9] | viability at 10 µM [2, 10] | viability at 50 µM [2, 10] | responders at 10 mg/kg [3, 11] | CC50 at 24 h [1, 12] | Percent Protection ([2]; 0.01 μM) | inhibition at 0.01 µM [2, 9] | viability at 0.01 µM [2, 10] | also measured
1 | Clc1ccc2c(c1)Nc1ccccc1S2 [2-Cl-phenothiazine] | 5 µM | 15% | 32% | 21% | 46% | 45% | 62% | 65% | – | – | – | – | –
2 | C1C2CC3CC1CC(C2)C3 [Adamantane] | 1000 µM | 13% | 20% | 19% | 29% | 43% | 50% | – | – | – | – | – | responders at 50 mg/kg [3, 11]: 23%
3 | N=C(N)NCCCCN [Agmatine, agmatine] | – | 35% | 51% | 50% | 73% | 65% | 81% | 20% | 500 µM | – | – | – | responders at 50 mg/kg [3, 11]: 50%; responders at 100 mg/kg [3, 11]: 75%; Toxicity (cell proliferation): relatively non-toxic; Cell proliferation (cell proliferation; at some concentrations): accelerates cell proliferation; Interaction with nicotine receptors (nicotine receptors): interaction with membrane receptors; Interaction with NMDA receptors (NMDA receptors): interaction with membrane receptors; Interaction with intracellular imidazoline receptors [4]: interaction with membrane receptors; Effect on ADP-ribosylation of proteins [5]: inhibit ADP-ribosylation of proteins; Insulin-like effects [6]: produces insulin-like effects in animals
4 | Cl.Cl.NCCCCNCCCN1c2ccccc2Sc2ccc(Cl)cc21 [G102, 2-chloro-N-(4-aminobutyl)-10H-Phenothiazine-10-propanamine-2HCl] | – | – | 5% | – | 7% | – | 35% | – | – | – | – | – | Shape of dose-response curve for nerve cell survival (nerve cell survival): U-shaped dose-response curve; Percent Protection ([2]; 1 μM): 40%; Percent Protection ([2]; 250 μM): 65%; inhibition at 1 µM [2, 9]: 57%; inhibition at 250 µM [2, 9]: 93%; viability at 1 µM [2, 10]: 70%; viability at 250 µM [2, 10]: 95%; toxic ([3]; 10 mg/kg ip, ischemic gerbils, n=10): 70%; responders at 1 mg/kg [3, 11]: 40%; responders at 5 mg/kg [3, 11]: 70%
5 | NCCCNCCCCNCCCN1c2ccccc2Sc2ccc(Cl)cc21 [G103, 2-chloro-N-[3-(8-spermidinyl)]-10H-Phenothiazine-10-propanamine.3 HCl] | – | – | – | – | – | – | – | – | 2 µM | 25% | 36% | 55% | Percent Protection ([2]; 0.10 μM): 2%; Percent Protection ([2]; 1 μM): -10%; inhibition at 0.1 µM [2, 9]: 3%; viability at 0.1 µM [2, 10]: 32%; viability at 1 µM [2, 10]: 20%; lethality ([3]; 0.50 mg/kg ip, ischemic gerbils, n=5): lethal; responders at 0.01 mg/kg [3, 11]: 42%; responders at 0.1 mg/kg [3, 11]: 55%
6 | CNC1(C)C2CCC(C2)C1(C)C (centres unmarked) [Mecamylamine] | 500 µM | – | – | – | – | – | – | 40% | – | – | – | – | Percent Protection ([2]; 25 μM): 37%; inhibition at 25 µM [2, 9]: 53%; viability at 25 µM [2, 10]: 67%
7 | CCCC(C)C1(CC)C(=O)NC(=O)NC1=O (centres unmarked) [Pentobarbital, pentobarbital] | – | – | – | – | – | – | – | – | – | – | – | – | responders at 40 mg/kg ([3]; Meriones unguiculatus, Pyramidal neuron, 336 h, read-out: Percent Protection): 87%
8 | NCCCCN [Putrescine] | 300 µM | – | – | – | – | – | – | 35% | – | 0% | 0% | 30% | Percent Protection ([2]; 0.005 μM): 2%; inhibition at 0.005 µM [2, 9]: 3%; viability at 0.005 µM [2, 10]: 32%; Effect against ischemia-induced nerve cell death [7]: protecting against ischemia-induced nerve cell death in gerbils
9 | C1CN2CCC1CC2 [Quinuclidine] | – | 10% | – | 14% | – | 40% | – | 15% | 100 µM | – | – | – | Percent Protection ([2]; 1 μM): 5%; inhibition at 1 µM [2, 9]: 7%; viability at 1 µM [2, 10]: 35%
10 | NCCCCNCCCN [Spermidine] | – | – | – | – | – | – | – | 50% | 2 µM | 48% | 69% | 78% | Percent Protection ([2]; 0.005 μM): 0%; inhibition at 0.005 µM [2, 9]: 0%; viability at 0.005 µM [2, 10]: 30%; Effect against ischemia-induced nerve cell death [7]: protecting against ischemia-induced nerve cell death in gerbils
11 | NCCCNCCCCNCCCN [Spermine] | – | – | – | – | – | – | – | 65% | – | 38% | 54% | 68% | CC50 at 24 h [1]: 2 µM; Percent Protection ([2]; 0.005 μM): -5%; viability at 0.005 µM [2, 10]: 25%; Effect against ischemia-induced nerve cell death [7]: protecting against ischemia-induced nerve cell death in gerbils
